# Test results as given in the Deep4Chem optical property database.
# Where “and” joins values, the source holds several entries; their conditions need not be identical. Equal entries are not always repeated.
# Assay: solvent given as SMILES
smiles,measurement,setting,value
CCCCCCC(CCCCCC)N1C(=O)c2cccc3c(-c4ccc(OC)c5cccc(C)c45)ccc(c23)C1=O,absorption maximum,in CCCCCC,326.6 nm
same,absorption maximum,in CCCCCCCCCCCCCC,327 nm
same,absorption maximum,in CCCCCCCCCCCO,329 nm
same,absorption maximum,in CCCCO,327.8 nm
same,absorption maximum,in CN(C)C=O,328.8 nm
same,absorption maximum,in Cc1ccccc1,328.8 nm
same,absorption maximum,in ClC(Cl)Cl,329 nm
COc1ccc(C2=CC(c3ccc(OC)cc3)=[O+][B-](C(C)=O)(C(C)=O)O2)cc1,absorption maximum,in CC#N,410 nm
same,absorption maximum,in ClC(Cl)(Cl)Cl,405 nm
Cc1cc(C2(c3cc(C)c(O)c(Br)c3)OS(=O)(=O)c3ccccc32)cc(Br)c1O,absorption maximum,in C1CCOC1,396 nm
same,absorption maximum,in C1COCCO1,396 nm
same,absorption maximum,in CC#N,398 nm
same,absorption maximum,in CC(C)(C)O,411 nm
same,absorption maximum,in CC(C)=O,394 nm
same,absorption maximum,in CC(C)O,413 nm
same,absorption maximum,in CCCCCO,417 nm
same,absorption maximum,in CCCO,415 nm
same,absorption maximum,in CCO,414 nm
same,absorption maximum,in CCOC(C)=O,395 nm
same,absorption maximum,in CCOCC,395 nm
CCCCCCc1ccc2c3c(ccc2c1)O[B-](c1ccccc1)(c1ccccc1)[N+](c1ccc([N+]2=Cc4c(ccc5cc(CCCCCC)ccc45)O[B-]2(c2ccccc2)c2ccccc2)cc1)=C3,absorption maximum,in C1CCOC1,455 nm
same,absorption maximum,in CC#N,452 nm
same,absorption maximum,in Cc1ccccc1,462 nm
same,absorption maximum,in ClCCl,459 nm
CCn1c(-c2ccc(-c3ccc(-c4ccc(-c5n(CC)c6ccccc6[n+]5CC)cc4)cc3)cc2)[n+](CC)c2ccccc21,absorption maximum,in O,305 nm
COC1(OC)C2(Cl)c3nc4cc(-c5cccs5)ccc4nc3C1(Cl)C1C[C@H]3[C@@H](CC12)C1(Cl)c2nc4cc(-c5cccs5)ccc4nc2C3(Cl)C1(OC)OC (stereo partly drawn),absorption maximum,in CC#N,366 nm
same,absorption maximum,in CCCCCC,358 nm
same,absorption maximum,in CCOC(C)=O,362 nm
same,absorption maximum,in CO,369 nm
same,absorption maximum,in Cc1ccccc1,364 nm
same,absorption maximum,in ClC(Cl)Cl,368 nm
same,absorption maximum,in ClCCl,369 nm
C(=C\c1ccc(-c2ccc(/C=C/c3ccc(-n4c5ccccc5c5ccccc54)cc3)s2)s1)/c1ccc(-n2c3ccccc3c3ccccc32)cc1,absorption maximum,in Cc1ccccc1,440.22 nm
O=C(O)CCCCCn1c2ccc(Br)cc2c(=O)c2cc3c(cc21)c(=O)c1cc(Br)ccc1n3CCCCCC(=O)O,absorption maximum,in CO,533 nm
N#Cc1cnc(-c2c3ccccc3cc3ccccc23)nc1,absorption maximum,in CCO,382 nm
same,absorption maximum,in ClCCl,385 nm
N#Cc1cc(-n2c3ccccc3c3cc(Br)ccc32)c(-n2c3ccccc3c3cc(Br)ccc32)cc1C#N,absorption maximum,in C1CCOC1,366 nm
CCCCC(CC)CO[N+](=O)[O-] (stereo not drawn),absorption maximum,in CO,218 nm
same,absorption maximum,in O,198 nm
c1ccc(N(c2ccccc2)c2cc3c4c(c2)N(c2ccccc2)c2cc5c(cc2B4c2ccccc2N3c2ccccc2)B2c3ccccc3N(c3ccccc3)c3cc(N(c4ccccc4)c4ccccc4)cc(c32)N5c2ccccc2)cc1,absorption maximum,in Cc1ccccc1,457 nm
CC(=O)Nc1ccc2c(c1)c(=O)c1cc(NC(C)=O)ccc1n2CCCCCC(=O)O,absorption maximum,in O,430 nm
O=P1(c2ccccc2)c2cccc3ccc4ccc1n4c23 (stereo not drawn),absorption maximum,in ClCCl,412 nm
O=c1[nH]c(=O)c2scc([C@H]3C[C@H](O)[C@@H](CO)O3)c2[nH]1,absorption maximum,in CC#N,296 nm
same,absorption maximum,in CCOC(C)=O,296 nm
same,absorption maximum,in CO,294 nm
same,absorption maximum,in O,294 nm
C(#Cc1ccccc1)c1ccccc1,absorption maximum,in CO,298 nm
same,absorption maximum,in ClC(Cl)Cl,299 nm
same,absorption maximum,in ClCCl,299 nm
CC(C)[Si](C#Cc1c2cc3ccccc3cc2c(C#C[Si](C(C)C)(C(C)C)C(C)C)c2nc3ccccc3nc12)(C(C)C)C(C)C,absorption maximum,in CCCCCC,693 nm
same,absorption maximum,in ClCCl,697 nm
Cc1cccc(C)c1N1C(c2ccccc2)=Cc2cccc[n+]2[B-]1(F)F,absorption maximum,in ClCCl,397 nm
CCCCCCCCCCCCN1C(=O)c2c(c3ccc4cc(-c5ccc(F)cc5)c(OC)cc4c3c3c2ccc2cc(-c4ccc(F)cc4)c(OC)cc23)C1=O,absorption maximum,in ClCCl,431 nm
CCCCN1C(=O)c2cc(Oc3ccc(C(C)(C)C)cc3)c3c4c(Oc5ccc(C(C)(C)C)cc5)c(Oc5ccc(C(C)(C)C)cc5)c5c6c(cc(Oc7ccc(C(C)(C)C)cc7)c(c7c(Oc8ccc(C(C)(C)C)cc8)c(Oc8ccc(C(C)(C)C)cc8)c(c2c37)C1=O)c64)C(=O)N(CCCC)C5=O,absorption maximum,in ClC(Cl)Cl,570 nm
[O-][n+]1c(-c2ccccc2)cc(N2CCOCC2)nc1/C=C/c1ccccc1,absorption maximum,in ClCCl,445 nm
COC(=O)c1cc(/N=N/c2cc3c4c(c2)CCCN4CCC3)cc(C(=O)OC)c1,absorption maximum,in CCOC(C)=O,471 nm
CCCCCCCCCCCCCCCCn1c(-c2cc(-c3nc4ccccc4n3CCCCCCCCCCCCCCCC)cc(-c3nc4ccccc4n3CCCCCCCCCCCCCCCC)c2)nc2ccccc21,absorption maximum,in ClCCl,301 nm
CC[N+]1(CC)CN2C(=N1)C(C(=O)O)=Cc1cc(OC)c(OC)cc12,absorption maximum,in O,392 nm
CC(=O)OCCN1C(=O)c2cccc3c(Oc4ccccc4C)ccc(c23)C1=O,absorption maximum,in ClC(Cl)Cl,352 nm
Cc1ccc(-c2ccc(/C=C/c3ccc(N(C)C)cc3)cn2)nc1,absorption maximum,in CC#N,383 nm
Nc1ccc2cc3ccccc3cc2c1,absorption maximum,in C1CCCCC1,397.61 nm
CCN(CC)c1ccc2cc(-c3cn4cc(C)ccc4n3)c(=O)oc2c1,absorption maximum,in ClC(Cl)Cl,424 nm
Cc1ccccc1C1=C2C=CC(=[N+](C)C)C=[C]2[Ge]([CH3])([CH3])[c]2cc(N(C)C)ccc21,absorption maximum,in O,635 nm
CN1C(=CC2=C(O)C(=O)C2=C2C(=O)c3ccccc3C2=O)C(C)(C)c2ccccc21,absorption maximum,in CCO,492 nm
O=c1c(Nc2ccccc2)c([O-])c1=[NH+]c1ccccc1,absorption maximum,in C1CCOC1,401 nm
same,absorption maximum,in CC#N,390 nm
same,absorption maximum,in CC(C)=O,398 nm
same,absorption maximum,in CCO,393 nm
same,absorption maximum,in CCOCC,400 nm
same,absorption maximum,in CN1CCCC1=O,393 nm
same,absorption maximum,in CN(C)C=O,393 nm
same,absorption maximum,in CO,390 nm
same,absorption maximum,in CS(C)=O,378 nm
same,absorption maximum,in O,374 nm
COc1ccc2cc(-c3ccc([N+](=O)[O-])cc3)ccc2c1,absorption maximum,in C1CCOC1,344 nm
same,absorption maximum,in CC#N,341 nm
same,absorption maximum,in ClC(Cl)Cl,346 nm
same,absorption maximum,in ClCCl,345 nm
CC1(C)c2ccccc2-c2cc3c4ccccc4n(-c4ccc(-c5nc(-c6ccccc6)nc(-c6ccccc6)n5)cc4)c3cc21,absorption maximum,in Cc1ccccc1,362 nm
c1ccc(-c2nc(-c3ccccn3)sc2N(c2ccccc2)c2ccccc2)cc1,absorption maximum,in ClC(Cl)Cl,388 nm
N#Cc1ccc(-c2ccc3c(c2)c2cc(-c4ccc(C#N)cc4)ccc2c2c3nc(-c3ccc(-c4ccc(N(c5ccccc5)c5ccccc5)cc4)cc3)n2-c2ccccc2)cc1,absorption maximum,in C1CCOC1,360.44 nm
same,absorption maximum,in CC#N,360.44 nm
same,absorption maximum,in CCCCCC,370.05 nm
same,absorption maximum,in CCOCC,366.21 nm
CCOC(=O)c1ccc(O)c(-c2[nH]c(=O)n3c2-c2ccccc2C3=O)c1,absorption maximum,in CC#N,391 nm
same,absorption maximum,in CO,395 nm
same,absorption maximum,in ClCCl,399 nm
Cc1c2ccc3c(C)[n+](C)ccc3c2cc[n+]1C,absorption maximum,in CC#N,390 nm
Nc1ccc(-c2ccc(N)cc2)cc1,absorption maximum,in C1CCOC1,306 nm
same,absorption maximum,in C1COCCO1,289 nm
same,absorption maximum,in CC#N,286 nm
same,absorption maximum,in CCCCCC,279 nm
same,absorption maximum,in CCOC(C)=O,285 nm
same,absorption maximum,in CN(C)C=O,299 nm
same,absorption maximum,in CO,281 nm
same,absorption maximum,in CS(C)=O,292 nm
same,absorption maximum,in Cc1ccccc1,295 nm
same,absorption maximum,in ClC(Cl)Cl,305 nm
same,absorption maximum,in ClCCl,286 nm
same,absorption maximum,in O,281 nm
c1ccc([B-]2(c3ccccc3)Oc3ccc4ccccc4c3-c3c4ccccc4cn[n+]32)cc1,absorption maximum,in Cc1ccccc1,436 nm
Cc1cc(-c2ccc(N(c3ccccc3)c3ccccc3)cc2)c2nsnc2c1-c1ccc(C(C)(C)C)cc1,absorption maximum,in ClCCl,418 nm
Nc1ccc2c(C(F)(F)F)cc(=O)oc2c1,absorption maximum,in C1CCC2CCCCC2C1,349 nm
same,absorption maximum,in C1CCCCC1,348 nm
same,absorption maximum,in C1COCCO1,364 nm
same,absorption maximum,in CC1CCCCC1,348 nm
same,absorption maximum,in CC#N,365 nm and 367 nm
same,absorption maximum,in CC(C)=O,371 nm
same,absorption maximum,in CC(C)O,384 nm
same,absorption maximum,in CCC(C)CC,347 nm
same,absorption maximum,in CCCC(C)C,347 nm
same,absorption maximum,in CCCCCC,347 nm
same,absorption maximum,in CCCCCCCCO,383 nm
same,absorption maximum,in CCCCCCO,384 nm
same,absorption maximum,in CCCCO,383 nm
same,absorption maximum,in CCO,383 nm
same,absorption maximum,in CCOC(C)=O,368 nm
same,absorption maximum,in CN(C)C=O,378 nm
same,absorption maximum,in CO,378 nm
same,absorption maximum,in CS(C)=O,386 nm
C(=C\c1c2ccccc2cc2ccccc12)/c1ccc2ccccc2n1,absorption maximum,in CC1CCCCC1,390 nm
same,absorption maximum,in CC#N,390 nm
CCn1c(-c2ccc(-c3ccc(-c4ccc(-c5n(CC)c6ccccc6[n+]5CC)cc4)c(C)c3)cc2)[n+](CC)c2ccccc21,absorption maximum,in O,290 nm
Nc1ccc(N2C(=O)c3ccc4c5ccc6c7c(ccc(c8ccc(c3c48)C2=O)c75)C(=O)NC6=O)cc1,absorption maximum,in CN(C)C=O,524 nm
Nc1ccc(N2C(=O)c3ccc4c5ccc6c7c(ccc(c8ccc(c3c48)C2=O)c75)C(=O)N(c2ccc(N)cc2)C6=O)cc1,absorption maximum,in CN(C)C=O,537 nm
O=C1O/C(=C2/C(=O)Oc3ccccc32)C(O)=C1c1ccccc1,absorption maximum,in ClC(Cl)Cl,388 nm
N#Cc1nc(-c2ccc(N3c4ccccc4Oc4ccccc43)cc2)c(-c2ccc(N3c4ccccc4Oc4ccccc43)cc2)nc1C#N,absorption maximum,in Cc1ccccc1,473 nm
Cc1c(COC(=O)c2ccccc2Cl)n2c(OCC(=O)c3ccccc3Cl)c(C)c(=O)n2c1=O,absorption maximum,in CCO,381 nm
O=C1O/C(=C\c2ccccc2)c2ccccc21,absorption maximum,in CC#N,335 nm
CC(=O)c1c(N[C@@H](Cc2ccccc2)C(=O)O)c2ccc(N(C)C)cc2oc1=O,absorption maximum,in ClCCl,374 nm
Cc1ccccc1C(=O)NN1C2=C(CC3=C1CC(C)(C)CC3=O)C(=O)CC(C)(C)C2,absorption maximum,in C1CCOC1,370 nm
same,absorption maximum,in CC#N,370 nm
same,absorption maximum,in CC(C)=O,368 nm
same,absorption maximum,in CCCCCO,378 nm
same,absorption maximum,in CO,376 nm
same,absorption maximum,in ClC(Cl)Cl,370 nm
same,absorption maximum,in ClCCl,368 nm
CCCCn1c(-c2ccc(-c3nnc(-c4ccc(-c5nc(-c6ccccc6)c(-c6ccccc6)n5CCCC)cc4)o3)cc2)nc(-c2ccccc2)c1-c1ccccc1,absorption maximum,in ClCCl,352 nm
